# Results as given in patent US10875875B2, “Propionic acid derivatives and methods of use thereof” (Aviara Pharmaceuticals, Inc., priority 2017, dated 2020).
# pIC50: −log10 of the molar value.
# Key:
# α4β1 = α4β1 (Homo sapiens, UniProt P05556+P13612); assay: α4β1 integrin inhibition, IC50; format: binding; settings: read-out: α4β1 IC50
# α4β7 = target: T1, α4β7 (Homo sapiens, UniProt P13612+P26010); assay: α4β7 integrin inhibition, IC50; format: binding
# T1 sequence (P13612 34-1032): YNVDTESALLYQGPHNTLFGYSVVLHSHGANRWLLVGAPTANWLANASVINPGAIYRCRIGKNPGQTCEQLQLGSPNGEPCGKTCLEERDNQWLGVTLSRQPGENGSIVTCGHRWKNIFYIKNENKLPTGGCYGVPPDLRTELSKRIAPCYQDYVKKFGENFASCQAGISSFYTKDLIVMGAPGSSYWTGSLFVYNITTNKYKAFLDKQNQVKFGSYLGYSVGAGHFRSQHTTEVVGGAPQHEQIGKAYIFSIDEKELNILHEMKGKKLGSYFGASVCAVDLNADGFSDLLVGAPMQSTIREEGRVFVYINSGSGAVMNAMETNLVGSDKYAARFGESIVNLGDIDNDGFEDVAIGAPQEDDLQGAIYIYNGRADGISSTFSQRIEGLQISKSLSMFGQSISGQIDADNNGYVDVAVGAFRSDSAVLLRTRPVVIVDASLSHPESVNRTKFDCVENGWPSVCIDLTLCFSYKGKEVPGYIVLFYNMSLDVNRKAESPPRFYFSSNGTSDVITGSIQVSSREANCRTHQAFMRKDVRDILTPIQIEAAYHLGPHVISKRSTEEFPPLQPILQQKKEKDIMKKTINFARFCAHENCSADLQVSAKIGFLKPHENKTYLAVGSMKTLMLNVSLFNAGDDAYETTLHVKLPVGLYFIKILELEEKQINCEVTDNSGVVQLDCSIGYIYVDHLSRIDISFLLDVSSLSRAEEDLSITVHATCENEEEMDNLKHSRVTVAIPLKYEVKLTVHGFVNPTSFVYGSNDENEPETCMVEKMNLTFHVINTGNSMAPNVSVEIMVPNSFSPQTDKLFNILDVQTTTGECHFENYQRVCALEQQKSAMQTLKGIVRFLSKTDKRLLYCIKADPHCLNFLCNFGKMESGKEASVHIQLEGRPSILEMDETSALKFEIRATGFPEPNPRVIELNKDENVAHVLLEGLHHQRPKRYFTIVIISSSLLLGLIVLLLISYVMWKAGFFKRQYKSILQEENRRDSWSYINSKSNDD
# T1 sequence (P26010 20-798): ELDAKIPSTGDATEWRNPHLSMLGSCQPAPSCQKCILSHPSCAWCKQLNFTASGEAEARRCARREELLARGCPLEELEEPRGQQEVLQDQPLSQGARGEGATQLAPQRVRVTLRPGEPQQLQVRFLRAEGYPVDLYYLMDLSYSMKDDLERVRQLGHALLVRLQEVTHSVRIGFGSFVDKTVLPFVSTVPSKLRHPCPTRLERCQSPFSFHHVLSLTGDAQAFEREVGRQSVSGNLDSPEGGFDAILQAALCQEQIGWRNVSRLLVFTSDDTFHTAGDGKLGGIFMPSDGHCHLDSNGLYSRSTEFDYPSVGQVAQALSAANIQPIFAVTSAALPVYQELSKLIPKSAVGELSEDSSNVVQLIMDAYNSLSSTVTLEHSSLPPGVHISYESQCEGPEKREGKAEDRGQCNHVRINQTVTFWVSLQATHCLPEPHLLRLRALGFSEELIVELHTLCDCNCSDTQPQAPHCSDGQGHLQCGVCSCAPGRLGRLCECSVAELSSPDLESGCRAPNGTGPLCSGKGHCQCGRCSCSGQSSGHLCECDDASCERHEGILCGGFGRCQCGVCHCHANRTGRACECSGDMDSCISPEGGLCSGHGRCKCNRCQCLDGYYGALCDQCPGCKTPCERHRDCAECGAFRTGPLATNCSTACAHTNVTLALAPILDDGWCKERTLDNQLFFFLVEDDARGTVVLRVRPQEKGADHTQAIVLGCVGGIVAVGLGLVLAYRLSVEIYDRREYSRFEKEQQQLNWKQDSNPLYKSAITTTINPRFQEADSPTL
# Sequence of α4β1 (P05556 21-798, one chain of several): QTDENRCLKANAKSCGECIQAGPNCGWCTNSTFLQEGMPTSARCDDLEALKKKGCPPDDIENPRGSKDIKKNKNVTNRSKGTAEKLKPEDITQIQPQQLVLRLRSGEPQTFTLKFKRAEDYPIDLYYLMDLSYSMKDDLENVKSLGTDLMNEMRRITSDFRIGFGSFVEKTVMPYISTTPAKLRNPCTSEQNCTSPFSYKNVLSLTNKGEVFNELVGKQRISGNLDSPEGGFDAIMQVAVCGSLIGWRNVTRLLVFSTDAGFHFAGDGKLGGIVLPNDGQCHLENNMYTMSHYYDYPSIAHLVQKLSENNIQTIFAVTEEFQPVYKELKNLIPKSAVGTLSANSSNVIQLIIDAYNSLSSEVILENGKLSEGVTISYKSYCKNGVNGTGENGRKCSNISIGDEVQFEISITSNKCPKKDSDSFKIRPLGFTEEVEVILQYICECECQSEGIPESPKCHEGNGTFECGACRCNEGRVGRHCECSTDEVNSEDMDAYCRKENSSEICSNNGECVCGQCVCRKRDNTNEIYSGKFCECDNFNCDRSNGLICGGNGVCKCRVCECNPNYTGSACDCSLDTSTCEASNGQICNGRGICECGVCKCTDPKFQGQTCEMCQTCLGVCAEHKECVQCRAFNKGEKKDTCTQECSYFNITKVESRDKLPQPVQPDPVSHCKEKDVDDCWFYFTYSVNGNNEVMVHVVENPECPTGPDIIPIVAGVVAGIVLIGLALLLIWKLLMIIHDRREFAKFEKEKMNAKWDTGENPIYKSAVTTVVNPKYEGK
Structure (SMILES),pIC50 (α4β1),pIC50 (α4β7)
"Cc1cn(C)c(=O)c(NC(=O)N[C@@H](CC(=O)O)c2cccc(-c3c(C)cccc3C)c2)c1O [1-470, sodium (S)-3-(3-(1,5-dimethyl-4-oxido-2-oxo-1,2-dihydropyridin-3-yl)ureido)-3-(2′,6′-dimethylbiphenyl-3-yl)propanoate]",> 7.70,> 6.70
"Cc1cc(O)c(NC(=O)N[C@@H](CC(=O)O)c2cccc(-c3ccc(F)cc3F)c2)c(=O)n1C [1-487, sodium (S)-3-(2′,4′-difluorobiphenyl-3-yl)-3-(3-(1,6-dimethyl-4-oxido-2-oxo-1,2-dihydropyridin-3-yl)ureido)propanoate]",> 7.70,< 6.70
"Cn1ccc(O)c(NC(=O)N[C@@H](CC(=O)O)c2cccc(-c3ccc(F)cc3F)c2)c1=O [1-488, sodium (S)-3-(2′,4′-difluorobiphenyl-3-yl)-3-(3-(1-methyl-4-oxido-2-oxo-1,2-dihydropyridin-3-yl)ureido)propanoate]",> 7.70,< 6.70
"Cc1cccc(C)c1-c1cccc([C@H](CC(=O)O)NC(=O)Nc2c(O)ccn(C)c2=O)c1 [1-502, sodium (S)-3-(2′,6′-dimethylbiphenyl-3-yl)-3-(3-(1-methyl-4-oxido-2-oxo-1,2-dihydropyridin-3-yl)ureido)propanoate]",> 7.70,> 6.70
"COc1cccc(-c2cc([C@H](CC(=O)O)NC(=O)Nc3c(O)c(C)cn(C)c3=O)ccc2OC)c1 [1-527, sodium (S)-3-(3′,6-dimethoxybiphenyl-3-yl)-3-(3-(1,5-dimethyl-4-oxido-2-oxo-1,2-dihydropyridin-3-yl)ureido)propanoate]",> 7.70,< 6.70
"COc1ccc([C@H](CC(=O)O)NC(=O)Nc2c(O)ccn(C)c2=O)cc1-c1c(C)cccc1C [1-533, sodium (S)-3-(6-methoxy-2′,6′-dimethylbiphenyl-3-yl)-3-(3-(1-methyl-4-oxido-2-oxo-1,2-dihydropyridin-3-yl)ureido)propanoate]",> 7.70,> 6.70
"Cn1ccc(O)c(NC(=O)N[C@@H](CC(=O)O)c2cccc(-c3c(Cl)cccc3Cl)c2)c1=O [1-537, sodium (S)-3-(2′,6′-dichlorobiphenyl-3-yl)-3-(3-(1-methyl-4-oxido-2-oxo-1,2-dihydropyridin-3-yl)ureido)propanoate]",> 7.70,> 6.70
"Cc1cccc(C)c1-c1cccc([C@H](CC(=O)O)NC(=O)Nc2c(O)cc(C)n(C)c2=O)c1 [1-550, sodium (S)-3-(3-(1,6-dimethyl-4-oxido-2-oxo-1,2-dihydropyridin-3-yl)ureido)-3-(2′,6′-dimethylbiphenyl-3-yl)propanoate]",> 7.70,> 6.70
"Cc1noc(C)c1-c1cccc([C@H](CC(=O)O)NC(=O)Nc2c(O)ccn(C)c2=O)c1 [1-560, sodium (S)-3-(3-(3,5-dimethylisoxazol-4-yl)phenyl)-3-(3-(1-methyl-4-oxido-2-oxo-1,2-dihydropyridin-3-yl)ureido)propanoate]",> 7.70,< 6.70
"Cc1cccc(C)c1-c1cc([C@H](CC(=O)O)NC(=O)Nc2c(O)ccn(C)c2=O)ccc1F [1-561, sodium (S)-3-(6-fluoro-2′,6′-dimethylbiphenyl-3-yl)-3-(3-(1-methyl-4-oxido-2-oxo-1,2-dihydropyridin-3-yl)ureido)propanoate]",> 7.70,> 7.70
"Cn1ccc(O)c(NC(=O)N[C@@H](CC(=O)O)c2ccc(-c3ccc(F)cc3F)s2)c1=O [1-562, sodium (S)-3-(5-(2,4-difluorophenyl)thiophen-2-yl)-3-(3-(1-methyl-4-oxido-2-oxo-1,2-dihydropyridin-3-yl)ureido)propanoate]",> 7.70,< 6.70
"COc1cccc(-c2cc([C@H](CC(=O)O)NC(=O)Nc3c(O)ccn(C)c3=O)ccc2OC(F)(F)F)c1 [1-634, sodium (S)-3-(3′-methoxy-6-(trifluoromethoxy)biphenyl-3-yl)-3-(3-(1-methyl-4-oxido-2-oxo-1,2-dihydropyridin-3-yl)ureido)propanoate]",> 7.70,
"COc1cccc(-c2cc([C@H](CC(=O)O)NC(=O)Nc3c(O)cc(C)n(C)c3=O)ccc2OC(F)(F)F)c1 [1-635, sodium (S)-3-(3-(1,6-dimethyl-4-oxido-2-oxo-1,2-dihydropyridin-3-yl)ureido)-3-(3′-methoxy-6-(trifluoromethoxy)biphenyl-3-yl)propanoate]",> 7.70,
"Cc1cccc(C)c1-c1ccc([C@H](CC(=O)O)NC(=O)Nc2c(O)ccn(C)c2=O)cc1 [1-636, sodium (S)-3-(2′,6′-dimethylbiphenyl-4-yl)-3-(3-(1-methyl-4-oxido-2-oxo-1,2-dihydropyridin-3-yl)ureido)propanoate]",> 6.70,
"Cc1ccccc1-c1ccc([C@H](CC(=O)O)NC(=O)Nc2c(O)cc(C)n(C)c2=O)cc1 [1-637, sodium (S)-3-(3-(1,6-dimethyl-4-oxido-2-oxo-1,2-dihydropyridin-3-yl)ureido)-3-(2′-methylbiphenyl-4-yl)propanoate]",> 7.70,
"Cc1cccc(C)c1-c1ccc([C@H](CC(=O)O)NC(=O)Nc2c(O)cc(C)n(C)c2=O)cc1 [1-638, sodium (S)-3-(3-(1,6-dimethyl-4-oxido-2-oxo-1,2-dihydropyridin-3-yl)ureido)-3-(2′,6′-dimethylbiphenyl-4-yl)propanoate]",> 6.70,
"Cn1ccc(O)c(NC(=O)N[C@@H](CC(=O)O)c2cccc(-c3ccccn3)c2)c1=O [1-639, sodium (S)-3-(3-(1-methyl-4-oxido-2-oxo-1,2-dihydropyridin-3-yl)ureido)-3-(3-(pyridin-2-yl)phenyl)propanoate]",> 7.70,
"COc1ccc(-c2cccc([C@H](CC(=O)O)NC(=O)Nc3c(O)ccn(C)c3=O)c2)nn1 [1-640, sodium (S)-3-(3-(6-methoxypyridazin-3-yl)phenyl)-3-(3-(1-methyl-4-oxido-2-oxo-1,2-dihydropyridin-3-yl)ureido)propanoate]",> 7.70,
"Cn1ccc(O)c(NC(=O)N[C@@H](CC(=O)O)c2cncc(-c3ccccc3)c2)c1=O [1-641, sodium (S)-3-(3-(1-methyl-4-oxido-2-oxo-1,2-dihydropyridin-3-yl)ureido)-3-(5-phenylpyridin-3-yl)propanoate]",> 7.70,
"Cc1cn(C)c(=O)c(NC(=O)N[C@@H](CC(=O)O)c2ccc(-c3ccccc3)cc2)c1O [1-643, sodium (S)-3-(biphenyl-4-yl)-3-(3-(1,5-dimethyl-4-oxido-2-oxo-1,2-dihydropyridin-3-yl)ureido)propanoate]",> 6.70,
"COc1ccc(-c2cccc([C@H](CC(=O)O)NC(=O)Nc3c(O)c(C)cn(C)c3=O)c2)cc1 [1-645, sodium (S)-3-(3-(1,5-dimethyl-4-oxido-2-oxo-1,2-dihydropyridin-3-yl)ureido)-3-(4′-methoxybiphenyl-3-yl)propanoate]",> 6.70,
"Cn1ccc(O)c(NC(=O)N[C@@H](CC(=O)O)c2cccc(-c3cnccn3)c2)c1=O [15-2, sodium (S)-3-(3-(1-methyl-4-oxido-2-oxo-1,2-dihydropyridin-3-yl)ureido)-3-(3-(pyrazin-2-yl)phenyl)propanoate]",> 7.70,
"COc1cccc(-c2cccc([C@H](CC(=O)O)NC(=O)Nc3c(O)ccn(C)c3=O)c2)n1 [sodium (S)-3-(3-(6-methoxypyridin-2-yl)phenyl)-3-(3-(1-methyl-4-oxido-2-oxo-1,2-dihydropyridin-3-yl)ureido)propanoate]",> 7.70,
